Measured values: ChEMBL document CHEMBL1806491, “The tandem chain extension aldol reaction used for synthesis of ketomethylene tripeptidomimetics targeting hPEPT1” (Bioorg Med Chem Lett, 2011)
Non-standard residues stand in square brackets, D forms with d. Residues, ends and D or L forms follow the SMILES beside them. *: point of attachment. 1Nal = N[C@@H](Cc1cccc2ccccc12)C(=O)O; Chg = N[C@H](C(=O)O)C1CCCCC1; Nva = CCC[C@H](N)C(=O)O; Bz = O=C(c1ccccc1)*

Columns and labels:
[1] = biological target: T1, Solute carrier family 15 member 1 (Homo sapiens) (UniProt P46059); test: (§1) Binding affinity to PEPT1 in human Caco2 cells assessed as inhibition of [14C]Gly-Sar apical uptake after 5 mins by liquid scintillation counting; assay type: cell-based; conditions: Caco-2
T1 sequence (whole entry): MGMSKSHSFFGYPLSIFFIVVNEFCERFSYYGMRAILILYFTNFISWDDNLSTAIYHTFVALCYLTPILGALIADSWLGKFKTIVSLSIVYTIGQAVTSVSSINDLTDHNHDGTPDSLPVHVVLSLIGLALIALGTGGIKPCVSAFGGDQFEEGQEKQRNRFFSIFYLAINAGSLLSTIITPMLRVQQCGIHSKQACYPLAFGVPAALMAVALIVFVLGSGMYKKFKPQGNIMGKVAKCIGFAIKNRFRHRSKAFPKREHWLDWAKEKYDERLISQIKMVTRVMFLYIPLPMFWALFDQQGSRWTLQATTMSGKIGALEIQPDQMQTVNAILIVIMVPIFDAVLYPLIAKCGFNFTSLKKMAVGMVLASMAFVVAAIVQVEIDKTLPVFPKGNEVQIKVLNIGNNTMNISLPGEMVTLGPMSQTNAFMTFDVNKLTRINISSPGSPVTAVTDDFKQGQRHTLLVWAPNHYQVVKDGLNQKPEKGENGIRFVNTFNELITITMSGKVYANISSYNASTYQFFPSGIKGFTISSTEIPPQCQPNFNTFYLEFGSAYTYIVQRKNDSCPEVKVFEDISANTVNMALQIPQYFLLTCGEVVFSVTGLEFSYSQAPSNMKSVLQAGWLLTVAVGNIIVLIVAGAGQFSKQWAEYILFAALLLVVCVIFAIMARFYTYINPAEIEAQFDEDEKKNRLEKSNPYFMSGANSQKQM

[2] = biological target: T2, Solute carrier family 15 member 1 (Homo sapiens, UniProt P46059); test: as §1; assay type: cell-based, Caco-2
T2 sequence (P46059 whole entry): T1 sequence (whole entry)

| inhibition [1] | Ki [2] [µM] | Compound |
| --- | --- | --- |
| Dose-dependent effect | 324 | C[C@H](NC(=O)[C@H](COC(=O)c1ccccc1)CC(=O)[C@@H](N)Cc1ccccc1)C(=O)O |
| Dose-dependent effect | 251 | CCC[C@H](NC(=O)[C@H](COC(=O)c1ccccc1)CC(=O)[C@@H](N)Cc1ccccc1)C(=O)O |
| Dose-dependent effect |  | N[C@@H](Cc1ccccc1)C(=O)C[C@@H](COC(=O)c1ccccc1)C(=O)N[C@H](C(=O)O)C1CCCCC1 |
| Dose-dependent effect |  | N[C@@H](Cc1ccccc1)C(=O)N[C@@H](COC(=O)c1ccccc1)C(=O)N[C@@H](Cc1cccc2ccccc12)C(=O)O (H-Phe-Ser(Bz)-[1Nal]-OH) |
| Dose-dependent effect |  | N[C@@H](Cc1ccccc1)C(=O)N[C@@H](COC(=O)c1ccccc1)C(=O)N[C@H](C(=O)O)C1CCCCC1 (H-Phe-Ser(Bz)-[Chg]-OH) |
| Dose-dependent effect |  | CCC[C@H](NC(=O)[C@H](COC(=O)c1ccccc1)NC(=O)[C@@H](N)Cc1ccccc1)C(=O)O (H-Phe-Ser(Bz)-[Nva]-OH) |
| Dose-dependent effect | 257 | C[C@H](NC(=O)[C@H](CO)NC(=O)[C@@H](N)Cc1ccccc1)C(=O)O (H-Phe-Ser-Ala-OH) |
